Laboratory results published in US20220370453A1 (Storm Therapeutics Ltd, priority 2019, published 2022).

Legend:
BCDIN3D [1] = molecular target: T1, BCDIN3D (Homo sapiens, UniProt Q7Z5W3); test: BCDIN3D IC50 RFMS (RapidFire) assay with mini-helix; format: biochemical; conditions: mini-helix substrate 0.2 μM, SAM 6 μM, 25 nM enzyme
T1 sequence (Q7Z5W3 1-292): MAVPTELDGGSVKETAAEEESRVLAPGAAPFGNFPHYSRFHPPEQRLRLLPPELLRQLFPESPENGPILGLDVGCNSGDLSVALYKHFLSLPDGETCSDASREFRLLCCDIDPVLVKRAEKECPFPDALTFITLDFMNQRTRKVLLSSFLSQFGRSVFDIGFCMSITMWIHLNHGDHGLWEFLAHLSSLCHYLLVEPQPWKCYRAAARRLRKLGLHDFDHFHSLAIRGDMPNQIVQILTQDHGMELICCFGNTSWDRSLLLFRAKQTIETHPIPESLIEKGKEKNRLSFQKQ
How it was run: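 25 nM enzyme preincubated 10 min at room temperature with compound (1% DMSO) in 25 mM Tris pH 8.0, 10 mM DTT, 1 mM EDTA, 0.03% BSA. Reaction started with 0.2 μM mini-helix plus 6 μM SAM, run 1 h at 37 °C, quenched with TCA; SAH product quantified by RapidFire MS against isotopic SAH standards.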

BCDIN3D [2] = molecular target: T1, BCDIN3D; test: BCDIN3D InCellPulse thermal stability assay in transfected A549 cells; format: cell-based; conditions: transiently transfected A549 cells, heat shock 58° C. 15 min
Procedure: BCDIN3D InCellPulse™ Assay
The thermal stability assay was performed with lipofectamine 3000 transiently transfected A549 using the plasmid pICP-ePL-BCDIN3 Da. This plasmid encodes for BCDIN3D N-terminally fused to a Prolabel (ePL), complementing a split β-Galactosidase Enzyme System InCELL Pulse Technology (InCELL Hunter Detection Kit, DiscoverX/Eurofins, cat: 96-0079L). 20 μl A549 cells (1500 cell/well) were added with a multidrop device to compounds to a final DMSO concentration of 0.6% in 384-well polypropylene plate format in IMDM medium and pre-incubated with the compounds for 1 h at 37° C. and 5% CO2. Subsequently, a heat shock was applied to the entire sealed plate in a 58° C. water bath for 15 min. The plates were cooled to RT, spun down and 25 μl/well of EA Detection Solution at 3.3× (InCELL Hunter Detection Kit) was added per well. 21 μl of the mixture was added to a black 384-well measurement plate (Corning, PS, black, Flat Bottom, #3575), mix for 30 minutes on a plate shaker at RT. Finally, the luminescence was measured with a Perkin Elmer EnVision with 0.2 s measurement time in luminescence mode.

Cn1ncc2c(NCc3ccc(C(F)(F)F)nc3)nc(NCC3(N)CC3)nc21 [Compound 2.19, 6-N-[(1-aminocyclopropyl)methyl]-1-methyl-4-N-[[6-(trifluoromethyl)pyridin-3-yl]methyl]pyrazolo[3,4-d]pyrimidine-4,6-diamine]
IC50 (BCDIN3D [1]): 7120 nM | IC50 (BCDIN3D [2]): 11700 nM

Cn1ncc2c(Nc3cc(F)c(Cl)c(F)c3)nc(NCC3(N)CC3)nc21 [Compound 2.20, 6-N-[(1-aminocyclopropyl)methyl]-4-N-(4-chloro-3,5-difluorophenyl)-1-methylpyrazolo[3,4-d]pyrimidine-4,6-diamine]
IC50 (BCDIN3D [1]): 179 nM | IC50 (BCDIN3D [2]): 887 nM

Cn1ncc2c(Nc3cccc(OC(F)F)c3)nc(NCC3(N)CC3)nc21 [Compound 2.21, 6-N-[(1-aminocyclopropyl)methyl]-4-N-[3-(difluoromethoxy)phenyl]-1-methylpyrazolo[3,4-d]pyrimidine-4,6-diamine]
IC50 (BCDIN3D [1]): 514 nM | IC50 (BCDIN3D [2]): 2470 nM

CC(C)Oc1ccc(Nc2nc(NCC3(N)CC3)nc3c2cnn3C)cc1 [Compound 2.22, 6-N-[(1-aminocyclopropyl)methyl]-1-methyl-4-N-(4-propan-2-yloxyphenyl)pyrazolo[3,4-d]pyrimidine-4,6-diamine]
IC50 (BCDIN3D [1]): 332 nM | IC50 (BCDIN3D [2]): 1500 nM

Cn1ncc2c(Nc3ccc(Cl)c(F)c3)nc(NCC3(N)CC3)nc21 [Compound 2.23]
IC50 (BCDIN3D [1]): 59.1 nM | IC50 (BCDIN3D [2]): 473 nM

Cn1ncc2c(Nc3cccc(F)c3F)nc(NCC3(N)CC3)nc21 [Compound 2.24, 6-N-[(1-aminocyclopropyl)methyl]-4-N-(2,3-difluorophenyl)-1-methylpyrazolo[3,4-d]pyrimidine-4,6-diamine]
IC50 (BCDIN3D [1]): 2460 nM | IC50 (BCDIN3D [2]): 3500 nM

Cn1ncc2c(Nc3cc(F)ccc3F)nc(NCC3(N)CC3)nc21 [Compound 2.25, 6-N-[(1-aminocyclopropyl)methyl]-4-N-(2,5-difluorophenyl)-1-methylpyrazolo[3,4-d]pyrimidine-4,6-diamine]
IC50 (BCDIN3D [1]): 1540 nM | IC50 (BCDIN3D [2]): 3520 nM

Cn1ncc2c(NCc3ccc(F)cc3F)nc(NCC3(N)CC3)nc21 [Compound 2.26]
IC50 (BCDIN3D [1]): 1000 nM | IC50 (BCDIN3D [2]): 4650 nM

Cn1ncc2c(Nc3ccc(F)c(Cl)c3)nc(NCC3(N)CC3)nc21 [Compound 2.27, 6-N-[(1-aminocyclopropyl)methyl]-4-N-(3-chloro-4-fluorophenyl)-1-methylpyrazolo[3,4-d]pyrimidine-4,6-diamine]
IC50 (BCDIN3D [1]): 262 nM | IC50 (BCDIN3D [2]): 1810 nM

Cn1ncc2c(Nc3ccc(Cl)cc3)nc(NCC3(N)CC3)nc21 [Compound 2.28, 6-N-[(1-aminocyclopropyl)methyl]-4-N-(4-chlorophenyl)-1-methylpyrazolo[3,4-d]pyrimidine-4,6-diamine]
IC50 (BCDIN3D [1]): 57.4 nM | IC50 (BCDIN3D [2]): 1070 nM

Cn1ncc2c(Nc3cccc(F)c3)nc(NCC3(N)CC3)nc21 [Compound 2.29, 6-N-[(1-aminocyclopropyl)methyl]-4-N-(3-fluorophenyl)-1-methylpyrazolo[3,4-d]pyrimidine-4,6-diamine]
IC50 (BCDIN3D [1]): 444 nM | IC50 (BCDIN3D [2]): 3000 nM

Cc1nn(C)c2nc(NCC3(N)CC3)nc(Nc3ccc(C(F)(F)F)cc3)c12 [Compound 2.30, 6-N-[(1-aminocyclopropyl)methyl]-1,3-dimethyl-4-N-[4-(trifluoromethyl)phenyl]pyrazolo[3,4-d]pyrimidine-4,6-diamine]
IC50 (BCDIN3D [1]): 545 nM | IC50 (BCDIN3D [2]): 1780 nM

Cn1ncc2c(Nc3ccc(C#N)cc3)nc(NCC3(N)CC3)nc21 [Compound 2.31, 4-[[6-[(1-aminocyclopropyl)methylamino]-1-methylpyrazolo[3,4-d]pyrimidin-4-yl]amino]benzonitrile]
IC50 (BCDIN3D [1]): 976 nM | IC50 (BCDIN3D [2]): 8240 nM

Cn1ncc2c(Nc3ccc(OC(F)(F)F)cc3)nc(NCC3(N)CC3)nc21 [Compound 2.32, 6-N-[(1-aminocyclopropyl)methyl]-1-methyl-4-N-[4-(trifluoromethoxy)phenyl]pyrazolo[3,4-d]pyrimidine-4,6-diamine]
IC50 (BCDIN3D [1]): 176 nM | IC50 (BCDIN3D [2]): 815 nM

COc1ccc(Nc2nc(NCC3(N)CC3)nc3c2cnn3C)cc1 [Compound 2.33, 6-N-[(1-aminocyclopropyl)methyl]-4-N-(4-methoxyphenyl)-1-methylpyrazolo[3,4-d]pyrimidine-4,6-diamine]
IC50 (BCDIN3D [1]): 327 nM | IC50 (BCDIN3D [2]): 3860 nM

Cn1ncc2c(Nc3ccc(OC(F)F)cc3)nc(NCC3(N)CC3)nc21 [Compound 2.34, 6-N-[(1-aminocyclopropyl)methyl]-4-N-[4-(difluoromethoxy)phenyl]-1-methylpyrazolo[3,4-d]pyrimidine-4,6-diamine]
IC50 (BCDIN3D [1]): 201 nM | IC50 (BCDIN3D [2]): 1420 nM

Cn1ncc2c(Nc3cccc(Cl)c3)nc(NCC3(N)CC3)nc21 [Compound 2.35, 6-N-[(1-aminocyclopropyl)methyl]-4-N-(3-chlorophenyl)-1-methylpyrazolo[3,4-d]pyrimidine-4,6-diamine]
IC50 (BCDIN3D [1]): 260 nM | IC50 (BCDIN3D [2]): 1980 nM

Cn1ncc2c(Nc3ccc(C(F)F)cc3)nc(NCC3(N)CC3)nc21 [Compound 2.36, 6-N-[(1-aminocyclopropyl)methyl]-4-N-[4-(difluoromethyl)phenyl]-1-methylpyrazolo[3,4-d]pyrimidine-4,6-diamine]
IC50 (BCDIN3D [1]): 138 nM | IC50 (BCDIN3D [2]): 1980 nM

Cn1ncc2c(NC34CC(C#N)(C3)C4)nc(NCC3(N)CC3)nc21 [Compound 2.37, 3-[[6-[(1-aminocyclopropyl)methylamino]-1-methylpyrazolo[3,4-d]pyrimidin-4-yl]amino]bicyclo[1.1.1]pentane-1-carbonitrile]
IC50 (BCDIN3D [1]): 8600 nM | IC50 (BCDIN3D [2]): 16500 nM

Cn1ncc2c(Nc3ccc(F)c(F)c3)nc(NCC3(N)CC3)nc21 [Compound 2.39, 6-N-[(1-aminocyclopropyl)methyl]-4-N-(3,4-difluorophenyl)-1-methylpyrazolo[3,4-d]pyrimidine-4,6-diamine]
IC50 (BCDIN3D [1]): 350 nM | IC50 (BCDIN3D [2]): 2130 nM

Cn1ncc2c(Nc3ccc(Cl)c(Cl)c3)nc(NCC3(N)CC3)nc21 [Compound 2.40, 6-N-[(1-aminocyclopropyl)methyl]-4-N-(3,4-dichlorophenyl)-1-methylpyrazolo[3,4-d]pyrimidine-4,6-diamine]
IC50 (BCDIN3D [1]): 33.3 nM | IC50 (BCDIN3D [2]): 234 nM

COc1cc(Nc2nc(NCC3(N)CC3)nc3c2cnn3C)ccc1Cl [Compound 2.41, 6-N-[(1-aminocyclopropyl)methyl]-4-N-(4-chloro-3-methoxyphenyl)-1-methylpyrazolo[3,4-d]pyrimidine-4,6-diamine]
IC50 (BCDIN3D [1]): 211 nM | IC50 (BCDIN3D [2]): 1610 nM

COc1ccc(CNc2nc(NCC3(N)CC3)nc3c2cnn3C)c(OC)c1 [Compound 2.42, N6-[(1-aminocyclopropyl)methyl]-N4-[(2,4-dimethoxyphenyl)methyl]-1-methyl-pyrazolo[3,4-d]pyrimidine-4,6-diamine]
IC50 (BCDIN3D [1]): 1260 nM | IC50 (BCDIN3D [2]): 2990 nM

Cn1ncc2c(NC34CC(F)(C3)C4)nc(NCC3(N)CC3)nc21 [Compound 2.43, N6-[(1-aminocyclopropyl)methyl]-N4-{3-fluorobicyclo[1.1.1]pentan-1-yl}-1-methyl-1H-pyrazolo[3,4-d]pyrimidine-4,6-diamine]
IC50 (BCDIN3D [1]): 2790 nM | IC50 (BCDIN3D [2]): 5940 nM

Cn1ncc2c(Nc3ccc(C(F)(F)F)cc3)nc(NCC3(N)CC3)nc21 [Compound 2.44, 6-N-[(1-aminocyclopropyl)methyl]-1-methyl-4-N-[4-(trifluoromethyl)phenyl]pyrazolo[3,4-d]pyrimidine-4,6-diamine]
IC50 (BCDIN3D [1]): 56.5 nM | IC50 (BCDIN3D [2]): 329 nM
